We go through four compounds from the NIST ThermoML archive (doi:10.1016/j.jct.2012.04.017).

The conditions of this data set: 101.33 kPa, Liquid, Vibrating tube method.

Numbers after ± are expanded uncertainties.

`CCCCCCCCCCCCCC[P+](CCCCCC)(CCCCCC)CCCCCC.N#C[B-](C#N)(C#N)C#N` [trihexyltetradecylphosphonium tetracyanoborate]: the mass density (as a rule, the mass of a sample divided by its volume) reads like this: (298.15 K) 891.05 ± 0.23 kg/m3; (308.15 K) 884.97 ± 0.23 kg/m3; (318.15 K) 879.06 ± 0.23 kg/m3; (328.15 K) 873.16 ± 0.23 kg/m3; (338.15 K) 867.25 ± 0.24 kg/m3; (348.15 K) 861.36 ± 0.24 kg/m3.
Turning to `CCCCO` [butan-1-ol], the mass density (298.15 K) amounted to 798.06 ± 0.15 kg/m3.
As to `CCCCCCn1cc[n+](C)c1.N#C[B-](C#N)(C#N)C#N` [1-hexyl-3-methylimidazolium tetracyanoborate], the mass density (298.15 K) stood at 983.03 ± 0.24 kg/m3.
Same read-out and setting: in the case of `CCCCCCCCCCn1cc[n+](C)c1.N#C[B-](C#N)(C#N)C#N` [1-decyl-3-methyl-1H-imidazolium tetracyanoborate] it was 955.57 ± 0.12 kg/m3.
